Where a name gives a salt, the structure may show the parent alone.
Experiments:
[1] = Drug loading into MAG-C cationic liposomes by HPLC; type: physicochemical; settings: 3 mol % drug
Description: The influence of MAG-C on the efficiency of loading chemotherapeutic agents (hydrophilic and lipophilic) in cationic liposomes was evaluated by HPLC. […] The inclusion of PEG in MAG-C cationic liposomes improved incorporation of vinblastine sulfate from […]. We also evaluated the effect of MAG-C on the incorporation efficiency of the hydrophilic drug, dacarbazine at 3 mol %.

[2] = test system: B16-F10 melanoma tumor; settings: 1.35 mg/kg
[3] = test system: B16-F10 melanoma metastasis; assay: Tumor metastases (melanin pigmentation, pleural cavity)
[4] = cationic liposomes without MAG-C

Structure (SMILES)	incorporation (loading) efficiency ([1]; MAG-C cationic liposomes with PEG included) [%]	incorporation (loading) efficiency ([1]; cationic liposomes with 0.5 mg/ml MAG-C (SPION))	incorporation (loading) efficiency [1, 4] [%]	tumor volumes compared to the untreated control group [2]	number of tumor nodules in the livers ([3]; compared to the saline control)	mice with evidence of metastasis within the pleural cavity ([3]; free drug)	incorporation (loading) efficiency ([1]; cationic liposomes with 2.5 mg/ml MAG-C (SPION))
COc1cc([C@@H]2c3cc4c(cc3[C@@H](O[C@@H]3O[C@@H]5CO[C@@H](C)O[C@H]5[C@H](O)[C@H]3O)[C@H]3COC(=O)[C@H]23)OCO4)cc(OC)c1O [etoposide]	7873.73	did not alter the incorporation efficiency	7876.03				
CC[C@]1(O)C[C@@H]2CN(CCc3c([nH]c4ccccc34)[C@@](C(=O)OC)(c3cc4c(cc3OC)N(C)[C@H]3[C@@](O)(C(=O)OC)[C@H](OC(C)=O)[C@]5(CC)C=CCN6CC[C@]43[C@@H]65)C2)C1 [vinblastine sulfate]			3273.6	no significant difference in the tumor volumes	less	5/5	no further decrease was observed

Source: patent US20130323165A1, “Magnetic Nanoplatforms for Theranostic and Multi-Modal Imaging Applications” (NORTHEASTERN UNIVERSITY, priority 2010, published 2013)
